# Measurements: paper PMC5218480 (PLoS ONE, 2017)
# Test system: MV-4-11 cells
# Assay: Gene expression microarray analysis (Affymetrix PrimeView) and GSEA
# Type: cell-based, human
# Parameters: RFU PODN (11730768_x_at) / Fold change /veh PODN (11730768_x_at) / RFU LINC00158 (11744669_a_at) / Fold change /veh LINC00158 (11744669_a_at) / RFU DUSP10 (11751237_a_at) / Fold change /veh DUSP10 (11751237_a_at) / RFU ID3 (11757404_x_at) / Fold change /veh ID3 (11757404_x_at) / RFU PLEKHG5 (11737974_s_at) / Fold change /veh PLEKHG5 (11737974_s_at) / RFU LRRC4B (11730491_at) / Fold change /veh LRRC4B (11730491_at) / RFU GIMAP4 (11747438_a_at) / Fold change /veh GIMAP4 (11747438_a_at) / RFU KRT8 (11758183_x_at) / Fold change /veh KRT8 (11758183_x_at) / RFU CNN1 (11734310_a_at) / Fold change /veh CNN1 (11734310_a_at) / RFU VPS37D (11726825_at) / Fold change /veh VPS37D (11726825_at) / RFU C10orf10 (11716522_x_at) / Fold change /veh C10orf10 (11716522_x_at) / RFU KIR2DL2 /// KIR2DL4 /// KIR2DL5A /// KIR2DL5B /// KIR2DS1 /// KIR2DS2 /// KIR2DS3 /// KIR2DS4 /// KIR3DL3 /// KIR3DL3 /// KIR3DS1 (11738374_at) / Fold change /veh KIR2DL2 /// KIR2DL4 /// KIR2DL5A /// KIR2DL5B /// KIR2DS1 /// KIR2DS2 /// KIR2DS3 /// KIR2DS4 /// KIR3DL3 /// KIR3DL3 /// KIR3DS1 (11738374_at) / RFU C1QL1 (11718748_at) / Fold change /veh C1QL1 (11718748_at) / RFU TMPRSS4 (11747572_a_at) / Fold change /veh TMPRSS4 (11747572_a_at) / RFU HAMP (11756126_x_at) / Fold change /veh HAMP (11756126_x_at) / RFU RNFT2 (11725882_a_at) / Fold change /veh RNFT2 (11725882_a_at) / RFU NR4A2 (11747474_a_at) / Fold change /veh NR4A2 (11747474_a_at) / RFU ABCC12 (11746883_a_at) / Fold change /veh ABCC12 (11746883_a_at) / RFU TMEM136 (11760407_x_at) / Fold change /veh TMEM136 (11760407_x_at) / RFU CLDN22 /// WWC2 (11732394_at) / Fold change /veh CLDN22 /// WWC2 (11732394_at) / RFU HLA-DPB1 (11760878_x_at) / Fold change /veh HLA-DPB1 (11760878_x_at) / RFU SPINT1 (11716480_a_at) / Fold change /veh SPINT1 (11716480_a_at) / RFU GAP43 (11754022_s_at) / Fold change /veh GAP43 (11754022_s_at) / RFU A4GNT (11735810_at) / Fold change /veh A4GNT (11735810_at) / RFU PRB3 (11715151_x_at) / Fold change /veh PRB3 (11715151_x_at) / RFU TUBB4B (11761932_at) / Fold change /veh TUBB4B (11761932_at) / RFU CAPN14 (11732068_a_at) / Fold change /veh CAPN14 (11732068_a_at) / RFU TMCC2 (11721928_a_at) / Fold change /veh TMCC2 (11721928_a_at) / RFU IRGQ (11745062_a_at) / Fold change /veh IRGQ (11745062_a_at) / RFU FAM174B (11720279_a_at) / Fold change /veh FAM174B (11720279_a_at) / RFU TMPRSS4 (11748680_a_at) / Fold change /veh TMPRSS4 (11748680_a_at) / RFU FAM212B (11763350_a_at) / Fold change /veh FAM212B (11763350_a_at) / RFU PLEKHG5 (11743358_a_at) / Fold change /veh PLEKHG5 (11743358_a_at) / RFU ZSCAN30 (11745921_a_at) / Fold change /veh ZSCAN30 (11745921_a_at) / RFU CMKLR1 (11741424_a_at) / Fold change /veh CMKLR1 (11741424_a_at) / RFU LOC101060620 /// MAPK8IP1 (11723275_at) / Fold change /veh LOC101060620 /// MAPK8IP1 (11723275_at) / RFU SPTSSB (11747773_x_at) / Fold change /veh SPTSSB (11747773_x_at) / RFU PRSS12 (11739890_at) / Fold change /veh PRSS12 (11739890_at) / RFU BIN1 (11741810_x_at) / Fold change /veh BIN1 (11741810_x_at) / RFU WNT11 (11732464_a_at) / Fold change /veh WNT11 (11732464_a_at) / RFU C10orf10 (11716521_a_at) / Fold change /veh C10orf10 (11716521_a_at) / RFU C5orf56 (11738089_at) / Fold change /veh C5orf56 (11738089_at) / RFU CYB561 (11721691_x_at) / Fold change /veh CYB561 (11721691_x_at) / RFU ANKRD19P (11752326_a_at) / Fold change /veh ANKRD19P (11752326_a_at) / RFU OR2T12 /// OR2T33 /// OR2T8 (11738714_s_at) / Fold change /veh OR2T12 /// OR2T33 /// OR2T8 (11738714_s_at) / RFU VCAN (11748164_a_at) / Fold change /veh VCAN (11748164_a_at) / RFU JSRP1 (11732532_at) / Fold change /veh JSRP1 (11732532_at) / RFU KRTAP10-11 (11738290_x_at) / Fold change /veh KRTAP10-11 (11738290_x_at) / RFU MYO3A (11730013_a_at) / Fold change /veh MYO3A (11730013_a_at) / RFU EBF3 (11725865_a_at) / Fold change /veh EBF3 (11725865_a_at) / RFU CAMK2N1 (11719241_x_at) / Fold change /veh CAMK2N1 (11719241_x_at) / RFU C5orf56 (11738088_a_at) / Fold change /veh C5orf56 (11738088_a_at) / RFU OLFML3 (11715873_a_at) / Fold change /veh OLFML3 (11715873_a_at) / RFU LOC100653217 /// NTM (11731650_a_at) / Fold change /veh LOC100653217 /// NTM (11731650_a_at) / RFU MAPK11 (11762145_a_at) / Fold change /veh MAPK11 (11762145_a_at) / RFU FIZ1 (11724087_x_at) / Fold change /veh FIZ1 (11724087_x_at) / RFU OASL (11726364_x_at) / Fold change /veh OASL (11726364_x_at) / RFU SOX15 (11748057_x_at) / Fold change /veh SOX15 (11748057_x_at) / RFU CD79A (11719716_a_at) / Fold change /veh CD79A (11719716_a_at) / RFU HIST1H1D (11736915_at) / Fold change /veh HIST1H1D (11736915_at) / RFU CASKIN2 (11723855_a_at) / Fold change /veh CASKIN2 (11723855_a_at) / RFU LOC730098 (11760151_x_at) / Fold change /veh LOC730098 (11760151_x_at) / RFU OR4N2 (11742367_at) / Fold change /veh OR4N2 (11742367_at) / RFU PRRT2 (11749266_a_at) / Fold change /veh PRRT2 (11749266_a_at) / RFU SNX32 (11753110_a_at) / Fold change /veh SNX32 (11753110_a_at) / RFU CDHR5 (11726645_a_at) / Fold change /veh CDHR5 (11726645_a_at) / RFU RCAN1 (11760418_a_at) / Fold change /veh RCAN1 (11760418_a_at) / RFU FAM167A (11723789_a_at) / Fold change /veh FAM167A (11723789_a_at) / RFU FAM26E (11764081_at) / Fold change /veh FAM26E (11764081_at) / RFU ISYNA1 (11749810_s_at) / Fold change /veh ISYNA1 (11749810_s_at) / RFU ACY1 (11761880_at) / Fold change /veh ACY1 (11761880_at) / RFU 11764098_at / Fold change /veh 11764098_at / RFU SAMD14 (11745864_x_at) / Fold change /veh SAMD14 (11745864_x_at) / RFU NPB (11741838_a_at) / Fold change /veh NPB (11741838_a_at) / RFU TMPRSS6 (11731388_a_at) / Fold change /veh TMPRSS6 (11731388_a_at) / RFU KRTAP10-2 (11738614_at) / Fold change /veh KRTAP10-2 (11738614_at) / RFU ARHGAP8 /// PRR5-ARHGAP8 (11727945_x_at) / Fold change /veh ARHGAP8 /// PRR5-ARHGAP8 (11727945_x_at) / RFU KRTAP5-7 /// NADSYN1 (11734609_at) / Fold change /veh KRTAP5-7 /// NADSYN1 (11734609_at) / RFU RASL12 (11751679_a_at) / Fold change /veh RASL12 (11751679_a_at) / RFU CDKN2B (11736163_a_at) / Fold change /veh CDKN2B (11736163_a_at) / RFU PRF1 (11729649_at) / Fold change /veh PRF1 (11729649_at) / RFU, ZNF638 /// ZNF638-IT1 / Fold change vs veh, ZNF638 /// ZNF638-IT1 / RFU, PANK3 / Fold change vs veh, PANK3 / RFU, SH3YL1 / Fold change vs veh, SH3YL1 / RFU, ZEB2 / Fold change vs veh, ZEB2 / RFU, NRIP1 / Fold change vs veh, NRIP1 / RFU, PTTG1IP / Fold change vs veh, PTTG1IP / RFU, CAPN2 / Fold change vs veh, CAPN2 / RFU, MED14 / Fold change vs veh, MED14 / RFU, SNORA58 / Fold change vs veh, SNORA58 / RFU, C1orf63 / Fold change vs veh, C1orf63 / RFU, LRRFIP1 / Fold change vs veh, LRRFIP1 / RFU, NDUFAF7 / Fold change vs veh, NDUFAF7 / RFU, SLC12A2 / Fold change vs veh, SLC12A2 / RFU, IBTK / Fold change vs veh, IBTK / RFU, ESF1 / Fold change vs veh, ESF1 / Fold change vs veh, TMEM50B / RFU, TAOK1 / Fold change vs veh, TAOK1 / RFU, ACBD3 / Fold change vs veh, ACBD3 / RFU, TMA16 / Fold change vs veh, TMA16 / RFU, RWDD3 / Fold change vs veh, RWDD3 / RFU, BCAT1 / Fold change vs veh, BCAT1 / RFU, EDEM3 / Fold change vs veh, EDEM3 / RFU, TMEM33 / Fold change vs veh, TMEM33 / RFU, WDR75 / Fold change vs veh, WDR75 / RFU, AHCTF1 / Fold change vs veh, AHCTF1 / RFU, TFRC / Fold change vs veh, TFRC / RFU, ZDHHC17 / Fold change vs veh, ZDHHC17 / RFU, NOM1 / Fold change vs veh, NOM1 / RFU, ARL8B / Fold change vs veh, ARL8B / RFU, ZBTB11 / Fold change vs veh, ZBTB11 / RFU, TAMM41 / Fold change vs veh, TAMM41 / RFU, KIAA1704 /// LOC100996395 / Fold change vs veh, KIAA1704 /// LOC100996395 / RFU, ING1 / Fold change vs veh, ING1 / RFU, TRMT61B / Fold change vs veh, TRMT61B / RFU, FUBP3 / Fold change vs veh, FUBP3 / RFU, TP53 / Fold change vs veh, TP53 / RFU, TNKS2 / Fold change vs veh, TNKS2 / RFU, ZFP14 / Fold change vs veh, ZFP14 / RFU, ACTR2 / Fold change vs veh, ACTR2 / RFU, PPP3R1 / Fold change vs veh, PPP3R1 / RFU, PIK3R1 / Fold change vs veh, PIK3R1 / RFU, HNRNPA1 / Fold change vs veh, HNRNPA1 / RFU, RNF170 / Fold change vs veh, RNF170 / RFU, ZNF28 / Fold change vs veh, ZNF28 / RFU, RNGTT / Fold change vs veh, RNGTT / RFU, OGT / Fold change vs veh, OGT / RFU, BRD1 / Fold change vs veh, BRD1 / RFU, MARS / Fold change vs veh, MARS / RFU, ZNF655 / Fold change vs veh, ZNF655 / RFU, FAHD1 / Fold change vs veh, FAHD1 / RFU, BDP1 / Fold change vs veh, BDP1 / RFU, LRRCC1 / Fold change vs veh, LRRCC1 / RFU, ARID1A / Fold change vs veh, ARID1A / RFU, ZNF146 / Fold change vs veh, ZNF146 / RFU, ZNF330 / Fold change vs veh, ZNF330 / RFU, GPN3 / Fold change vs veh, GPN3 / RFU, C9orf123 / Fold change vs veh, C9orf123 / RFU, N4BP2L2 / Fold change vs veh, N4BP2L2 / RFU, ARFIP1 / Fold change vs veh, ARFIP1 / RFU, FAM179B / Fold change vs veh, FAM179B / RFU, BCL10 / Fold change vs veh, BCL10 / RFU, UHRF1BP1L / Fold change vs veh, UHRF1BP1L / RFU, BET1 / Fold change vs veh, BET1 / RFU, CNOT2 / Fold change vs veh, CNOT2 / RFU, ZNF268 / Fold change vs veh, ZNF268 / Fold change vs veh, ZNF507 / RFU, DGCR2 / Fold change vs veh, DGCR2 / RFU, WDSUB1 / Fold change vs veh, WDSUB1 / Fold change vs veh, HSP90B1 /// MIR3652 / RFU, ADSS / Fold change vs veh, ADSS / RFU, GK / Fold change vs veh, GK / RFU, ZNF148 / Fold change vs veh, ZNF148 / RFU, TAF9 / Fold change vs veh, TAF9 / RFU, SLC1A5 / Fold change vs veh, SLC1A5 / RFU, SLMO2 / Fold change vs veh, SLMO2 / RFU, ABCC4 / Fold change vs veh, ABCC4 / RFU, LOC101060439 /// RAP1B / Fold change vs veh, LOC101060439 /// RAP1B / RFU, RFX7 / Fold change vs veh, RFX7 / RFU, GTPBP10 / Fold change vs veh, GTPBP10 / RFU, CNEP1R1 / Fold change vs veh, CNEP1R1 / RFU, BIVM-ERCC5 /// ERCC5 / Fold change vs veh, BIVM-ERCC5 /// ERCC5 / RFU, ILF3 / Fold change vs veh, ILF3 / RFU 11762660_at / Fold change /veh 11762660_at / RFU VCAN (11757783_s_at) / Fold change /veh VCAN (11757783_s_at) / RFU DDX43 (11728927_at) / Fold change /veh DDX43 (11728927_at) / RFU KRT8 (11758188_x_at) / Fold change /veh KRT8 (11758188_x_at) / RFU NKD1 (11759106_at) / Fold change /veh NKD1 (11759106_at) / RFU SRD5A1 (11742802_a_at) / Fold change /veh SRD5A1 (11742802_a_at) / RFU TPSAB1 /// TPSB2 (11721975_s_at) / Fold change /veh TPSAB1 /// TPSB2 (11721975_s_at) / RFU GSTM3 (11746129_a_at) / Fold change /veh GSTM3 (11746129_a_at) / RFU IL23R (11737362_x_at) / Fold change /veh IL23R (11737362_x_at) / RFU TMEM51 (11727254_a_at) / Fold change /veh TMEM51 (11727254_a_at) / RFU PIWIL2 (11732686_x_at) / Fold change /veh PIWIL2 (11732686_x_at) / RFU ORM1 (11744905_x_at) / Fold change /veh ORM1 (11744905_x_at) / RFU CCDC152 (11743942_at) / Fold change /veh CCDC152 (11743942_at) / RFU ECM1 (11717891_a_at) / Fold change /veh ECM1 (11717891_a_at) / RFU IL23R (11748794_a_at) / Fold change /veh IL23R (11748794_a_at) / RFU TNFAIP8L3 (11732012_x_at) / Fold change /veh TNFAIP8L3 (11732012_x_at) / RFU MBOAT4 (11741988_at) / Fold change /veh MBOAT4 (11741988_at) / RFU 11764193_at / Fold change /veh 11764193_at / RFU TMEM53 (11763286_at) / Fold change /veh TMEM53 (11763286_at) / RFU MAGEB2 (11727129_at) / Fold change /veh MAGEB2 (11727129_at) / RFU TMEM200A (11744735_a_at) / Fold change /veh TMEM200A (11744735_a_at) / RFU CCDC152 (11751479_a_at) / Fold change /veh CCDC152 (11751479_a_at) / RFU FAM211A (11726209_a_at) / Fold change /veh FAM211A (11726209_a_at) / RFU RGS16 (11746705_a_at) / Fold change /veh RGS16 (11746705_a_at) / RFU VCAN (11755009_s_at) / Fold change /veh VCAN (11755009_s_at) / RFU RHOB (11743442_s_at) / Fold change /veh RHOB (11743442_s_at) / RFU RGS16 (11720943_a_at) / Fold change /veh RGS16 (11720943_a_at) / RFU RGS16 (11720944_at) / Fold change /veh RGS16 (11720944_at) / RFU, VPS4B / Fold change vs veh, VPS4B / RFU, CREB1 / Fold change vs veh, CREB1 / RFU, DNAJC13 / Fold change vs veh, DNAJC13 / RFU, GNAQ / Fold change vs veh, GNAQ / RFU, CDK5R1 / Fold change vs veh, CDK5R1 / RFU, ZRANB3 / Fold change vs veh, ZRANB3 / RFU, CUL4A / Fold change vs veh, CUL4A / RFU, CCNY / Fold change vs veh, CCNY / RFU, UFL1 / Fold change vs veh, UFL1 / RFU, COG3 / Fold change vs veh, COG3 / RFU, DIAPH2 / Fold change vs veh, DIAPH2 / RFU, SKA2 / Fold change vs veh, SKA2 / RFU, AFF3 / Fold change vs veh, AFF3 / RFU, LMF1 / Fold change vs veh, LMF1 / RFU, IPO11 / Fold change vs veh, IPO11 / RFU, DFFB / Fold change vs veh, DFFB / RFU, FOXP1 / Fold change vs veh, FOXP1 / RFU, CARD8 / Fold change vs veh, CARD8 / RFU, STRN3 / Fold change vs veh, STRN3 / RFU, ADK / Fold change vs veh, ADK / RFU, RASSF2 / Fold change vs veh, RASSF2 / RFU, WIPF1 / Fold change vs veh, WIPF1 / RFU, LARP1B / Fold change vs veh, LARP1B / RFU, RASA1 / Fold change vs veh, RASA1 / RFU, RB1 / Fold change vs veh, RB1 / RFU, PPFIA1 / Fold change vs veh, PPFIA1 / RFU, MAT2A / Fold change vs veh, MAT2A / RFU, CCT5 / Fold change vs veh, CCT5 / RFU, WDR92 / Fold change vs veh, WDR92 / RFU, CUX1 / Fold change vs veh, CUX1 / RFU, TTC7A / Fold change vs veh, TTC7A / RFU, TMEM135 / Fold change vs veh, TMEM135 / RFU, DEPTOR / Fold change vs veh, DEPTOR / RFU, CPM / Fold change vs veh, CPM / RFU, DNAJB6 / Fold change vs veh, DNAJB6 / RFU, CACNA2D3 / Fold change vs veh, CACNA2D3 / RFU, DTX4 / Fold change vs veh, DTX4 / RFU, TFCP2 / Fold change vs veh, TFCP2 / RFU, GMCL1 /// GMCL1P1 / Fold change vs veh, GMCL1 /// GMCL1P1 / RFU, AEBP2 / Fold change vs veh, AEBP2 / RFU, SNHG1 /// SNORD22 /// SNORD25 /// SNORD26 /// SNORD27 /// SNORD28 /// SNORD29 /// SNORD31 / Fold change vs veh, SNHG1 /// SNORD22 /// SNORD25 /// SNORD26 /// SNORD27 /// SNORD28 /// SNORD29 /// SNORD31 / Fold change (Aza/veh), C12orf56 (ProbeSet 11735607_a_at) / Fold change (ACY-1035/veh), C12orf56 (ProbeSet 11735607_a_at) / Fold change (Aza/veh), FGFR1OP (ProbeSet 11751329_s_at) / Fold change (ACY-1035/veh), FGFR1OP (ProbeSet 11751329_s_at) / Fold change (Aza/veh), VPS36 (ProbeSet 11739960_a_at) / Fold change (ACY-1035/veh), VPS36 (ProbeSet 11739960_a_at) / RFU SYPL1 (11715823_x_at) / Fold change /veh SYPL1 (11715823_x_at) / RFU IGFBP7 (11715501_s_at) / Fold change /veh IGFBP7 (11715501_s_at) / RFU REEP3 (11722064_at) / Fold change /veh REEP3 (11722064_at) / RFU IGLL1 (11728026_x_at) / Fold change /veh IGLL1 (11728026_x_at): dose or concentration left out as unconfirmed
# Conditions: MV-4-11 cells, 48 hours
smiles,measurement,value
Nc1ncn([C@@H]2O[C@H](CO)[C@@H](O)[C@H]2O)c(=O)n1 [azacitidine],RFU PLEKHG5 (11743358_a_at),38.46 RFU
